Measurements taken from US4107309A, “Substituted imidazo[1,2-d]-as-triazines” (American Cyanamid Company, priority 1977, dated 1978).

Assays:
[1] = system: mouse skin cyclic-AMP phosphodiesterase; experiment: mouse skin phosphodiesterase (PDE) inhibition test; format: biochemical; conditions: for Mouse Skin Phosphodiesterase: test compound 10 ug./ml, active if it inhibits more than theophylline (to 50% of control at 1 mM or to 80% of control at 0.05 mM); for phosphodiesterase activity, % of control: reference level used as activity criterion
Text: The novel compounds of the present invention are active in inhibiting the enzyme cyclic-AMP phosphodiesterase which is responsible for the metabolism of cyclic adenosine monophosphate which is usually simply referred to as cyclic AMP. As such, they are useful in the treatment of psoriasis, a disease in which the epidermal cyclic AMP levels are reported to be decreased. Also as such, they are useful in the treatment of asthma, since elevated levels of cyclic AMP in most cells are reported to inhibit the release of histamine and other mediators and since elevated levels of cyclic AMP in bronchial smooth muscle are reported to cause bronchodilation. See Ann. Reports in Medicinal Chem., Vol. 10, 197 (1975).
The inhibition of phosphodiesterase is determined by the mouse skin phosphodiesterase (PDE) inhibition test as follows:
Hairless mice (Jackson Laboratories), 3-4 months old are killed by cervical dislocation and their skins removed. Epidermal slices are taken at a thickness of 0.2 mm. The slices are weighed and homogenized at 100 mg./ml. in ice-cold tris-HCl buffer (0.04M, pH 8, containing 0.005M MgCl2). Homogenates are centrifuged at 17,000 × gravity for 30 minutes. The supernatants are divided into aliquots which are stored at -20° C. Dilutions of the PDE are made with tris-HCl buffer just prior to use.
AG1-X2®, 200-400 mesh (a polystyrene anionic exchange resin 8% cross linked from Bio-Rad Lab.) is washed with 0.5N HCl, 0.5N NaOH, 0.5N HCl and repeatedly with double distilled water to pH 5. The resin is allowed to settle and 2 volumes of water are added to one volume of settled resin.
^3 H-Cyclic AMP (21 c/m mole, Schwarz-Mann Inc.) is purified by addition of 0.1 to 0.2 ml. of stock (in 50% ethanol) to 5 ml. of anion exchange resin and 0.4 ml. of tris-HCl buffer. The mixture is vortexed, centrifuged at 1200 × gravity for 5 minutes and the supernatant is discarded. The resin is washed in the same manner eight more times with two volumes of tris-HCl buffer. Resin bound ^3 H-cyclic AMP is eluted by two successive washings with 4 ml. of 0.025N HCl (resin pH = 2.0). After centrifugation, the pooled acid washes containing ^3 H-cyclic AMP are aliquoted and lyophilized. The material is stored dry at -20° C. and reconstituted with tris-HCl buffer just prior to use with a volume sufficient to give approximately 200,000 CPM/0.1 ml.
PDE activity is measured by the method of W. J. Thompson and N. N. Appleman, Biochemistry 10, 311 (1971). Assays are conducted in 12 × 75 mm. polypropylene test tubes. The reaction mixture consists of ^3 H-cyclic AMP (200,000 CPM), unlabeled cyclic AMP, PDE (100 ug. protein) and test compounds which are prepared by dissolving the compounds in methanol at a concentration of 10 mg./ml. and then dilution of tris-HCl buffer. Final concentration of the test compounds in the incubation mixture is 10 ug./ml. The total volume of the incubation mixture is increased to 0.4 ml. with tris-HCl buffer containing 3.75 millimoles of 2-mercaptoethanol. The enzyme is incubated for 10 minutes at room temperature in the presence of the test compounds or buffer prior to the addition of the mixture of ^3 H-cyclic AMP and unlabeled cyclic AMP. Reactions are run at 30° C. for 15 minutes and then terminated by immersing in acetone-dry ice until frozen, followed by boiling for 3 minutes. […]

[2] = system: mouse passive cutaneous anaphylaxis (IgE and IgG lesions); experiment: mouse passive cutaneous anaphylaxis (PCA) test; format: in vivo; conditions: 50 mg./kg intraperitoneally at -1 hour; active if IgE or IgG lesion area significantly smaller than control
Protocol: Anti-asthma activity was determined by the mouse passive cutaneous anaphylaxis (PCA) test as follows.
Female mice (Charles River Breeding Labs.), weighing 20-22 gm. are inoculated intraperitoneally at approximately three weeks of age with 0.5 ml. of Timothy pollen antigen in complete Freund's adjuvant. The sensitizing antigen is prepared by suspending 60 mg. of Timothy antigen (Phleum pratense) in 6 ml. of Freund's Complete Adjuvant (Difco Labs.). Approximately 3-5 weeks after inoculation, ascitic fluid is removed from responding mice and tested for IgE and IgG type antibody by mouse PCA as follows:
Samples of ascitic fluid are diluted 1:10 and 50 μl are injected intradermally into five mice. The mice are challenged intravenously with antigen and Evans blue dye 48 hours later. Fifteen minutes after challenge, the dorsal skin is removed and examined for blue spots. […]
At -50 hour (relative to antigen challenge at 0 hour) 50 μl of IgE is injected intradermally on the left side of a 25 gm. female mouse, posterior to the axilla at the level of the diaphragm. […] Challenge and reading are performed in serial order so that reading of the assay is essentially blind. […] The largest and smallest diameters of the lesion and a qualitative estimate of intensity of color are recorded. […] IgE and IgG lesions are analyzed independently. […]

Row | SMILES | Mouse Skin Phosphodiesterase [1] | MOUSE PCA TEST [2] | phosphodiesterase activity, % of control ([1]; 0.05 mM concentration) | phosphodiesterase activity, % of control ([1]; 1 mM concentration)
1 | CN1CCN(c2nncc3nccn23)CC1 [5-(4-Methyl-1-piperazinyl)-imidazo[1,2-d]-as-triazine] | Active | Accept |  | 
2 | c1coc(CNc2nncc3nccn23)c1 [5-(Furfurylamino)-imidazo[1,2-d]-as-triazine] | Active |  |  | 
3 | CSc1nncc2nccn12 [5-(Methylthio)-imidazo[1,2-d]-as-triazine] | Active |  |  | 
4 | Cn1c(=O)c2[nH]cnc2n(C)c1=O [theophylline, reference compound] |  |  | 80 % of control | 50 % of control
